Experiments:
[1] = test system: GmCERK1-GmCAK1 interaction; experiment: Co-immunoprecipitation of GmCERK1-GFP with GmCAK1-HA in N. benthamiana; type: cell-based, soybean (Glycine max); details: Co-IP; N. benthamiana leaves treated 50 mg/L for 5 min
Protocol: (§1) Nicotiana benthamiana leaves were harvested 48 h post inoculation (hpi) after agroinfiltration. Samples were ground in liquid nitrogen and incubated for 30 min in a lysis buffer (50 mM Tris-HCl pH 8.0, 150 mM NaCl, 1.0% (v/v) NP-40, 0.1% SDS (w/v) and 0.1% protease inhibitor cocktail ([…]; Sigma, St. Louis, MI, USA)). Supernatant was collected by centrifugation at 21,000 g for 15 min and then incubated with GFP-trap beads (item No.: gta-20; Chromotek, Hauppauge, NY, USA) at 4°C for 2 h. The GFP-trap beads were pelleted by centrifugation at 500 g for 2 min and washed with lysis buffer at least four times. Proteins were eluted by boiling the beads in a protein loading buffer for 10 min and detected by immunoblot analysis with anti-GFP (Cat No. M20004; Abmart, Shanghai, China) or anti-HA (Cat No. M20013; Abmart, Shanghai, China).

Phytophthora sojae P6497 = experiment: P. sojae infection of pretreated soybean etiolated hypocotyls; type: in vivo, Phytophthora sojae on soybean (Glycine max); details: for biomass of P. sojae: dp6, 50 mg/L, 24 h before inoculation with zoospores, etiolated hypocotyls, 48 hpi, genomic DNA qPCR, vs mock dH2O
Protocol: For soybean etiolated hypocotyls inoculation assays, etiolated hypocotyls of soybean (cultivar Williams) were inoculated with P. sojae zoospore suspensions (100 zoospores). Infected etiolated hypocotyls were maintained at 25°C in the dark for 2 d, photographed and collected for biomass detection. For soybean hairy‐root inoculation assays, transgenic hairy roots were soaked in CTOS/CSOS (50 mg/L) or mock (dH2O) for 12 h and then were infected with red fluorescent protein (RFP)‐labeled P. sojae strain P6497, and fluorescence was visualized in the infected area of soybean hairy root and the biomass of P. sojae was determined by qRT‐PCR at 48 hpi.

GmCERK1^ECDI137R = experiment: MST binding to GmCERK1^ECD mutant I137R; design: species or system soybean (Glycine max); details: ligand dp6
From the text: The ectodomains of GmCERK1, GmNFR5a, and mutants were cloned into the yeast expression vector pPICZαA (Thermo Fisher Scientific, Shanghai, China) through the double digestion and ligation using the restriction endonuclease EcoRI/XbaI (NEB, Suzhou, China) and T4 ligase. Then, the linearized recombinant plasmid pPICZαA‐GmCERK1 and pPICZαA‐GmNFR5a were transformed into P. pastoris X‐33. The positive colonies were selected on YPDS medium (1% w/v yeast extract, 2% w/v peptone, 2% w/v glucose, 2% w/v agar, 100 μg/mL antibiotic Zeocin (Thermo Fisher Scientific)) plates and verified by direct DNA sequencing. Protein expression was carried out initially in BMGY media (100 mM potassium phosphate pH 6.0, 1.34% w/v YNB, 4 × 10^−5% w/v biotin, 1% v/v glycerol) at 28°C with shaking (180 rpm) until the OD600 reached 2.0–6.0. The cell pellet was transferred into BMMY medium (100 mM potassium phosphate pH 6.0, 1.34% w/v YNB, 4 × 10^−5% w/v biotin, 0.5% v/v methanol) and continuously supplied with the addition of 0.5% (v/v) methanol every day for 5 d. […]
GmCERK1^ECD, GmNFR5a^ECD, and all mutants were labeled with a fluorescent dye using the Monolith Protein Labeling Kit RED‐NHS second Generation (MO‐L011). […] The data were analyzed and fitted by plotting ligand concentrations against bound fractions using the MO.Affinity Analysis v3.0.5 software. […]

GmCERK1 homodimer = experiment: Co-immunoprecipitation of GmCERK1-GFP with GmCERK1-HA in N. benthamiana; type: cell-based, soybean (Glycine max); details: Co-IP; N. benthamiana leaves treated 50 mg/L for 5 min
Protocol: as §1

[2] = test system: soybean leaf discs (ROS burst); experiment: Luminol-based ROS burst assay in soybean leaf discs; type: cell-based, soybean (Glycine max); details: 50 mg/L, leaf discs of soybean Williams, dH2O negative control
Protocol: To measure the oxidation burst, leaf discs (Ø 0.5 cm) collected from 2-week-old soybean (cultivar Williams) were floated overnight in 200 μL sterile H2O in a 96-well plate. The H2O was replaced with 200 μL reaction buffer containing luminol/peroxidase ([…] luminol, 10 mg/mL peroxidase) and chitooligosaccharides treatments (50 mg/L). flg22 was used as a positive control. The luminescence was measured using a GLOMAX96 microplate luminometer (Promega, Madison, WI, USA). The experiments for MAPK activation were carried out as described previously ([[…] et al., 2014]). The MAPK activation was determined by immunoblots with anti-phospho-p44/42 MAPK antibody (#4370; Cell Signaling, Boston, MA, USA).

| Structure (SMILES) | interaction between GmCERK1 and GmCAK1 [1] | biomass of P. sojae (Phytophthora sojae P6497) | plant resistance elicited, compared with CTOS (Phytophthora sojae P6497; soybean etiolated hypocotyls, P. sojae (Figure 1E, F)) | interaction with GmCERK1^ECDI137R (GmCERK1^ECDI137R) | GmCERK1-GFP / GmCERK1-HA interaction (homodimer) (GmCERK1 homodimer) | ROS burst [2] |
| --- | --- | --- | --- | --- | --- | --- |
| N[C@H]1[C@H](O[C@H]2[C@H](O)[C@@H](N)[C@H](O[C@H]3[C@H](O)[C@@H](N)[C@H](O[C@H]4[C@H](O)[C@@H](N)[C@H](O[C@H]5[C@H](O)[C@@H](N)[C@H](O[C@H]6[C@H](O)[C@@H](N)C(O)O[C@@H]6CO)O[C@@H]5CO)O[C@@H]4CO)O[C@@H]3CO)O[C@@H]2CO)O[C@H](CO)[C@@H](O)[C@@H]1O (stereo partly drawn) [CSOS (dp6), chitosan oligosaccharide] | diminished | significantly lower | somewhat weaker | cannot interact | strong interaction | – |
| CC(=O)N[C@H]1[C@H](O[C@H]2[C@H](O)[C@@H](NC(C)=O)[C@H](O[C@H]3[C@H](O)[C@@H](NC(C)=O)C(O)O[C@@H]3CO)O[C@@H]2CO)O[C@H](CO)[C@@H](O[C@@H]2O[C@H](CO)[C@@H](O[C@@H]3O[C@H](CO)[C@@H](O[C@@H]4O[C@H](CO)[C@@H](O)[C@H](O)[C@H]4NC(C)=O)[C@H](O)[C@H]3NC(C)=O)[C@H](O)[C@H]2NC(C)=O)[C@@H]1O (stereo partly drawn) [CTOS (dp6), chitin oligosaccharide] | diminished | significantly lower | – | – | strong interaction | stronger ROS burst than that of CTOS (dp4) |

From PMC12782889, “A GmNRF5a–GmCERK1–GmCAK1 module mediates chitin/chitosan‐triggered immune response in soybean” (Journal of Integrative Plant Biology, 2025)
